Measurements from patent US20110112135A1, “Imidazo [1,2-A] Pyridine Compounds” (priority 2007, published 2011).
pEC50, pIC50: −log10 of the molar value. Where two headings read alike, the source gives them in different places.

Legend:
[1] = system: ABCA1 gene; assay: Quantitative analysis of ABCA1 gene regulation in THP-1 cells (real-time PCR); format: cell-based, human; conditions: for Emax: LXR agonist reference at 1.0 uM as positive control, read-out: Agonism ABCA1; for pEC50: read-out: EC50 ABCA1
Protocol: III. Quantitative Analysis of ABCA1 Gene Regulation in THP-1 Cells. The compounds of formula (I) effect on the regulation of the ABCA1 gene was evaluated using the following procedure. Materials and Methods Cell culture: The THP-1 monocytic cell line (ATCC #TIB-202) was obtained from American Type Culture Collection (Manassas, Va.) and cultured in RPMI 1640 medium (Gibco, Carlsbad, Calif.) containing 10% FBS, 2 mM L-glutamine, and 55 uM beta-Mercaptoethanol (BME). […] Louis, Mo.) for three days to induce differentiation into adherent macrophages. Differentiated THP-1 cells were treated with test compounds or ligands dissolved in DMSO (Sigma, D-8779) in culture medium lacking phorbal ester. […] Dose response effects were measured in duplicate, in the range of 0.001 to 30 micromolar concentrations and treated cells were incubated for an additional 18 hrs prior to RNA isolation. Unstimulated cells treated with vehicle were included as negative controls on each plate. […] L., J. Med. Chem. (2000), 45:1963-1966.). Results of antagonist analysis are expressed as % antagonism and IC50 (in μM). RNA isolation and quantitation: Total cellular RNA was isolated from treated cells cultured in 96-well plates using PrepStation 6100 (Applied Biosystems, Foster City, Calif.), according to the manufacturer's recommendations. RNA was resuspended in ribonuclease-free water and stored at -70° C. prior to analysis. RNA concentrations were quantitated with RiboGreen test procedure, #R-11490 (Molecular Probes, Eugene, Oreg.). Gene expression analysis: Gene-specific mRNA quantitation was performed by real-time PCR with the Perkin Elmer Corp. chemistry on an ABI Prism 7700 Sequence detection system (Applied Biosystems, Foster City, Calif.) according to the manufacturer's instructions. Samples (50-100 ng) of total RNA were assayed in duplicate or triplicate in 50 ul reactions using one-step RT-PCR and the standard curve method to estimate specific mRNA concentrations. Sequences of gene-specific primer and probe sets were designed with Primer Express Software (Applied Biosystems, Foster City, Calif.). […] Relative levels of ABCA1 mRNA are normalized using GAPDH mRNA or 18S rRNA probe/primer sets purchased commercially (Applied Biosystems, Foster City, Calif.). Statistics: Mean, standard deviation and statistical significance of duplicate evaluations of RNA samples were assessed using ANOVA, one-way analysis of variance using SAS analysis. Reagents: -GAPDH Probe and Primers-Taqman GAPDH Control Reagents 402869 or 4310884E 18S Ribosomal RNA-Taqman 18S Control Reagents 4308329 […] Qiagen Quantitect probe RT-PCR 204443.

[2] = target: T1, human LXRβ (Homo sapiens, UniProt P55055); assay: Ligand-binding test procedure for human LXRβ (3H T0901317 tracer, flash plates); conditions: biotinylated hLXRβ from E. coli extract; tracer 3H T0901317
T1 construct: biotin (biotinylated); made in house; host or cells: E. coli (crude extract)
T1 sequence (P55055 1-460): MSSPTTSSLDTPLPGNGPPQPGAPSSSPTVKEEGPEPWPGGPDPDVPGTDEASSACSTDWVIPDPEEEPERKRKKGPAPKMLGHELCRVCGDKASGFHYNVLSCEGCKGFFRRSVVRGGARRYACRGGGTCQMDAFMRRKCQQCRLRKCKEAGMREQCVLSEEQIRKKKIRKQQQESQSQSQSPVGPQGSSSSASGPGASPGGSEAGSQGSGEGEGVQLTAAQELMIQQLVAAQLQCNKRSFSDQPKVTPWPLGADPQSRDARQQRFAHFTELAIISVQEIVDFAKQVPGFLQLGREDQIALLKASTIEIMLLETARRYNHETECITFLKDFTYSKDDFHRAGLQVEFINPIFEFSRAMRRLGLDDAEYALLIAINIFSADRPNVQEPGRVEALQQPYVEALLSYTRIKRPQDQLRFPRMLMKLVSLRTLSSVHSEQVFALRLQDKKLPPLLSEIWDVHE
How it was run: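 Biotinylated hLXRβ from E. coli extract was captured on streptavidin flash plates (Bmax ~4000 cpm) at 4 °C overnight. Test ligand dilutions were mixed with 5 nM [3H]T0901317 tracer solution and incubated on the plates overnight at 4 °C; bound radioactivity was counted after washing.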

[3] = target: T2, human LXRα (Homo sapiens, UniProt Q13133); assay: Ligand-binding test procedure for human LXRα (3H T0901317 tracer, flash plates); conditions: biotinylated hLXRα from E. coli extract; tracer 3H T0901317
T2 construct: biotin (biotinylated); made in house; host or cells: E. coli (crude extract)
T2 sequence (Q13133 1-447): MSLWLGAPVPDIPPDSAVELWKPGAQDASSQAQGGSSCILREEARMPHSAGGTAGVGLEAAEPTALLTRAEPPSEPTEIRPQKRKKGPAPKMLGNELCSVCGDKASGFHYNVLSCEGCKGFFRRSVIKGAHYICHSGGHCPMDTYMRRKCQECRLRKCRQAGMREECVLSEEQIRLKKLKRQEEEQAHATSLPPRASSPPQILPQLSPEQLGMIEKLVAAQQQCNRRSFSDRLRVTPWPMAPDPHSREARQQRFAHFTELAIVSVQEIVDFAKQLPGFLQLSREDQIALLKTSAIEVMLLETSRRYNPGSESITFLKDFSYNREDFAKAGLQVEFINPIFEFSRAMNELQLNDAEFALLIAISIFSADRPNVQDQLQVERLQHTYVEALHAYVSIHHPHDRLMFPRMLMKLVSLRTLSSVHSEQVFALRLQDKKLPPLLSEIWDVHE
Protocol: II. Ligand-Binding Test Procedure for Human LXRα.
Receptor source: E. coli extract from cells expressing biotinylated hLXRα. Extract was made in a similar buffer as above, but with 50 mM TRIS.
Washed streptavidin and coated flash plates with wash buffer. Diluted receptor extract to give Bmax ˜4000 cpm and add to the wells. Wrapped the plates in aluminum foil and stored them at +4° C. over night.
Made a dilution series in DMSO of the test ligands. Made a 5 nM solution of the radioactive tracer in buffer. Mixed 250 μl diluted tracer with 5 μl of the test ligand from each concentration of the dilution series. Washed the receptor-coated flash plates. Added 200 μl per well of the ligand/radiolabel mixture to the receptor-coated flash plates. Wrapped the plates in aluminum foil and incubate at +4° C. over night.
Aspirated wells, and wash the flashed plates. Sealed the plate. Measured the remaining radioactivity in the plate.

[4] = Gene regulation by LXR (Human), differentiated THP-1 cells, 18 hrs
[5] = Gene regulation by LXR (Human), differentiated THP-1 cells, 18 hrs, ABCA1 mRNA

| pIC50 [2] | pIC50 [3] | pEC50 [1, 5] | Compound | Emax [1, 4] | pEC50 ([1]; Homo sapiens, THP-1, 18 h) |
| --- | --- | --- | --- | --- | --- |
|  |  |  | CCS(=O)(=O)c1cccc(Oc2cccc(-c3c(C)nc4c(C(F)(F)F)cccn34)c2)c1 [Example 10, 2-methyl-3-(3-(3-(ethylsulfonyl)phenoxy)phenyl)-8-(trifluoromethyl)imidazo[1,2-a]pyridine] | 91% | 6.26 |
|  |  |  | CCc1nc2c(C(F)(F)F)cccn2c1-c1cccc(Oc2cccc(S(C)(=O)=O)c2)c1 [Example 17, 2-ethyl-3-(3-(3-(methylsulfonyl)phenoxy)phenyl)-8-(trifluoromethyl)imidazo[1,2-a]pyridine] | 91% | 7.00 |
| 7.85 | 6.49 | 6.96 | CCc1nc2c(C(F)(F)F)cccn2c1-c1cccc(Oc2cccc(S(=O)(=O)CC)c2)c1 [Example 18, 2-ethyl-3-(3-(3-(ethylsulfonyl)phenoxy)phenyl)-8-(trifluoromethyl)imidazo[1,2-a]pyridine] | 118% |  |
| 7.03 | 6.01 | 6.39 | CCCS(=O)(=O)c1cccc(Oc2cccc(-c3c(CC)nc4c(C(F)(F)F)cccn34)c2)c1 [Example 19, 2-ethyl-3-(3-(3-(propylsulfonyl)phenoxy)phenyl)-8-(trifluoromethyl)imidazo[1,2-a]pyridine] | 72% |  |
| 7.85 | 6.55 | 7.15 | CCc1nc2c(C(F)(F)F)cccn2c1-c1cccc(Oc2cccc(S(=O)(=O)C(C)C)c2)c1 [Example 20, 2-ethyl-3-(3-(3-(isopropylsulfonyl)phenoxy)phenyl)-8-(trifluoromethyl)imidazo[1,2-a]pyridine] | 101% |  |
| 7.36 | 6.28 | 6.11 | CCc1nc2c(C(F)(F)F)cccn2c1-c1cccc(Oc2cccc(S(=O)(=O)CCCO)c2)c1 [Example 21] | 111% |  |
| 7.29 | 6.20 | 6.83 | CCc1nc2c(C(F)(F)F)cccn2c1-c1cccc(Oc2cc(F)cc(S(C)(=O)=O)c2)c1 [Example 24, 2-ethyl-3-(3-(3-fluoro-5-(methylsulfonyl)phenoxy)phenyl)-8-(trifluoromethyl)imidazo[1,2-a]pyridine] | 76% |  |
|  |  |  | CNS(=O)(=O)c1cccc(Oc2cccc(-c3c(C(C)C)nc4c(Cl)cccn34)c2)c1 [Example 49, 3-[3-(8-chloro-2-isopropylimidazo[1,2-a]pyridin-3-yl)phenoxy]-N-methylbenzenesulfonamide] | 101% | 6.10 |
|  |  |  | CC(C)c1nc2c(C(F)(F)F)cccn2c1-c1cccc(OCc2cccc(S(C)(=O)=O)c2)c1 [Example 52, 2-isopropyl-3-(3-{[3-(methylsulfonyl)benzyl]oxy}phenyl)-8-(trifluoromethyl)imidazo[1,2-a]pyridine] | 86% | 5.62 |
|  |  |  | CC(C)c1nc2c(Cl)cccn2c1-c1cccc(Oc2cccc(S(C)(=O)=O)c2)c1 [Example 66, 8-chloro-2-isopropyl-3-{3-[3-(methylsulfonyl)phenoxy]phenyl}imidazo[1,2-a]pyridine] | 74% | 6.20 |
|  |  |  | CC(C)c1nc2c(C#N)cccn2c1-c1cccc(Oc2cccc(S(C)(=O)=O)c2)c1 [Example 72, 2-isopropyl-3-{3-[3-(methylsulfonyl)phenoxy]phenyl}imidazo[1,2-a]pyridine-8-carbonitrile] | 79% | 6.29 |
|  |  |  | CC(C)(C)c1nc2c(C(F)(F)F)cccn2c1-c1cccc(Oc2cccc(S(C)(=O)=O)c2)c1 [Example 75, 2-tert-butyl-3-{3-[3-(methylsulfonyl)phenoxy]phenyl}-8-(trifluoromethyl)imidazo[1,2-a]pyridine] | 91% | 6.40 |
|  |  |  | CC(C)c1nc2c(Cl)cccn2c1-c1cccc(Oc2cccc(S(N)(=O)=O)c2)c1 [Example 98, 3-[3-(8-chloro-2-isopropylimidazo[1,2-a]pyridin-3-yl)phenoxy]benzenesulfonamide] | 66% | 5.86 |
|  |  |  | CCc1nc2c(C(F)(F)F)cccn2c1-c1cccc(Cc2cccc(S(C)(=O)=O)c2)c1 [Example 100, 2-ethyl-3-{3-[3-(methylsulfonyl)benzyl]phenyl}-8-(trifluoromethyl)imidazo[1,2-a]pyridine] | 82% | 6.34 |
| 6.95 |  | 6.32 | CS(=O)(=O)c1cccc(Oc2ccc(-c3c(-c4ccsc4)nc4c(C(F)(F)F)cccn34)cc2)c1 [Example 127, 3-{4-[3-(methylsulfonyl)phenoxy]phenyl}-2-thiophen-3-yl-8-(trifluoromethyl)imidazo[1,2-a]pyridine] | 25% |  |
|  |  |  | CS(=O)(=O)c1cccc(Oc2cccc(-c3c(CN4CCCCC4)nc4c(C(F)(F)F)cccn34)c2)c1 [Example 131, 3-{3-[3-(methylsulfonyl)phenoxy]phenyl}-2-(piperidin-1-ylmethyl)-8-(trifluoromethyl)imidazo[1,2-a]pyridine] | 100% | 7.37 |
|  |  |  | CS(=O)(=O)c1cccc(Oc2cccc(-c3c(CN4CCSC4)nc4c(C(F)(F)F)cccn34)c2)c1 [Example 133, 3-{3-[3-(methylsulfonyl)phenoxy]phenyl}-2-(1,3-thiazolidin-3-ylmethyl)-8-(trifluoromethyl)imidazo[1,2-a]pyridine] | 98% | 8.00 |
| 6.15 | < 6.00 |  | CCc1nc2c(C(F)(F)F)cccn2c1-c1cccc(Oc2ccc(C#N)c(S(C)(=O)=O)c2)c1 [Example 141, 4-{3-[2-ethyl-8-(trifluoromethyl)imidazo[1,2-a]pyridin-3-yl]phenoxy}-2-(methylsulfonyl)benzonitrile] |  |  |
| < 6.00 | < 6.00 |  | Cc1nc2c(C(F)(F)F)cccn2c1-c1cccc(Oc2ccc(C#N)c(S(C)(=O)=O)c2)c1 [Example 142, 2-(methylsulfonyl)-4-{3-[2-methyl-8-(trifluoromethyl)imidazo[1,2-a]pyridin-3-yl]phenoxy}benzonitrile] |  |  |
